In ChEMBL document CHEMBL3817741, “Synthesis, cytotoxic and urease inhibitory activities of some novel isatin-derived bis-Schiff bases and their copper(ii) complexes” (Medchemcomm, 2016):

Assays:
[1] = target: Urease (Canavalia ensiformis) (UniProt P07374); assay: Inhibition of Jack bean urease assessed as production of ammonia at 10 mM after 30 mins by indophenol method
NCI-H157 = assay: Antiproliferative activity against human NCI-H157 cells assessed as cell growth inhibition after 48 hrs by SRB assay; assay type: functional, cell-based; conditions: NCI-H157, 48 h
Urease = Urease (Canavalia ensiformis, UniProt P07374); assay: Inhibition of Jack bean urease assessed as production of ammonia after 30 mins by indophenol method
[2] = Antiproliferative activity against African green monkey Vero cells assessed as reduction in cell viability at 100 uM after 48 hrs by SRB assay; assay type: cell-based; conditions: chlorocebus sabaeus

Chain of Urease (P07374 whole entry): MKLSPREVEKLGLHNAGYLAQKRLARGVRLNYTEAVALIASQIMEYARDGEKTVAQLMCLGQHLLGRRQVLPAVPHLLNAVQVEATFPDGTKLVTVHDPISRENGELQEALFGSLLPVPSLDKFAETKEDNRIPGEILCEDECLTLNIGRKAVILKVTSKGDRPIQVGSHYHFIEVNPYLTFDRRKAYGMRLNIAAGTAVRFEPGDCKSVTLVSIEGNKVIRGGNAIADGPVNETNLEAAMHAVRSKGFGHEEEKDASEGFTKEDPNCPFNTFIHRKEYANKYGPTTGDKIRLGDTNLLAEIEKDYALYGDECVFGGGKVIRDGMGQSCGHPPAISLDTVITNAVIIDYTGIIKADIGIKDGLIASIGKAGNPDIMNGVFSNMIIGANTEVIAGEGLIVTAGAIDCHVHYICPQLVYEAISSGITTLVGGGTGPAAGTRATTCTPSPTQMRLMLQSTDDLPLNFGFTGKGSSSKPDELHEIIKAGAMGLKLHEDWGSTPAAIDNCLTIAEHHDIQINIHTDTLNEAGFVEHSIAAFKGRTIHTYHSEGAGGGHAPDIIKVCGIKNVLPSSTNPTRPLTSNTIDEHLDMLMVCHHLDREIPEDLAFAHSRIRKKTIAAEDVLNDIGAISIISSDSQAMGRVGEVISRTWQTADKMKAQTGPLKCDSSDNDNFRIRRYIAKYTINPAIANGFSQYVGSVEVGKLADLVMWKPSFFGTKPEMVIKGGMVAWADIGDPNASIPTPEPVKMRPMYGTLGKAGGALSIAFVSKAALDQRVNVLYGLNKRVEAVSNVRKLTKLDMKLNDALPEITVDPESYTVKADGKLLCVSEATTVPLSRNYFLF
Chain of Urease (Canavalia ensiformis) (P07374 whole entry, looked up): as the sequence (P07374 whole entry) above

Structure (SMILES)	inhibition [1]	IC50 (NCI-H157)	IC50 (Urease)	inhibition at 48 h, 100 µM [2]
Cc1ccc2c(c1)/C(=N/c1ccc(C)c(/N=C3\C(=O)Nc4ccc(C)cc43)c1)C(=O)N2	> 50%	3.01 µM	0.34 µM	13.4%
Cc1ccc(/N=C2\C(=O)Nc3ccc([N+](=O)[O-])cc32)cc1/N=C1\C(=O)Nc2ccc([N+](=O)[O-])cc21	> 50%	3.73 µM	5.86 µM	10.9%
Cc1ccc(/N=C2\C(=O)Nc3ccc(S(=O)(=O)O)cc32)cc1/N=C1\C(=O)Nc2ccc(S(=O)(=O)O)cc21	> 50%	3.88 µM	25.2 µM	11.7%
Cc1ccc(/N=C2\C(=O)Nc3ccc(Br)cc32)cc1/N=C1\C(=O)Nc2ccc(Br)cc21	> 50%	2.32 µM	0.04 µM	18.7%
CC[C@]1(O)C[C@H]2CN(CCc3c([nH]c4ccccc34)[C@@](C(=O)OC)(c3cc4c(cc3OC)N(C=O)[C@H]3[C@@](O)(C(=O)OC)[C@H](OC(C)=O)[C@]5(CC)C=CCN6CC[C@]43[C@@H]65)C2)C1 [VINCRISTINE]	–	–	–	16.8%
Cc1ccc(/N=C2\C(=O)Nc3ccc(Cl)cc32)cc1/N=C1\C(=O)Nc2ccc(Cl)cc21	> 50%	2.56 µM	0.11 µM	18.5%
Cc1ccc(/N=C2\C(=O)Nc3ccccc32)cc1/N=C1\C(=O)Nc2ccccc21	> 50%	3.76 µM	1.15 µM	23.6%
Cc1ccc(/N=C2\C(=O)Nc3ccc(F)cc32)cc1/N=C1\C(=O)Nc2ccc(F)cc21	> 50%	2.99 µM	1.65 µM	22.1%
